These results are taken from ChEMBL document CHEMBL5523716, “Discovery of novel EGFR-PROTACs capable of degradation of multiple EGFR-mutated proteins” (Eur J Med Chem, 2024).

The target of data set [1] is von Hippel-Lindau disease tumor suppressor/Epidermal growth factor receptor (Homo sapiens, UniProt P00533+P40337). The experiment in a line: PROTAC activity at VHL/EGFR Del19 mutant in human HCC827 cells assessed as induction of EGFR degradation incubated for 72 hrs by Western blot analysis. It counts as cell-based.
In another data set the test system is H1975-TM. The data set is described as follows: Antitumor activity against human H1975-TM cells xenografted in BALB/c mouse assessed as downregulation of ERK phosphorylation in tumor at 5 to 20 mg/kg,ip once daily for 14 days by Western blot analysis. It counts as functional, organism-based. The settings on record: dose 5-20 mg/kg, time 14.0 day.
Data set [2] concerns von Hippel-Lindau disease tumor suppressor/Epidermal growth factor receptor (Homo sapiens), P00533+P40337 [L858R,T790M]. The experiment in a line: PROTAC activity at VHL/EGFR L858R/T790M mutant in human NCI-H1975 cells assessed as induction of EGFR degradation at 100 nM preincubated with MG-132 for 6 hrs followed by compound treatment for 48 hrs by Western blot analysis. It counts as cell-based. Background: A western blot detects proteins with antibodies after separation by electrophoresis.

A short description of data set [3]: Metabolic stability in monkey liver microsomes assessed as elimination rate constant at 1 uM incubated upto 60 mins in presence of NADPH by LC-MS/MS analysis. It counts as ADME, Macaca mulatta, Microsome. The settings on record: rhesus monkey. On the technique in general: Microsomes from liver hold many membrane-bound enzymes, among them those of drug oxidation.

Data set [4] deals with von Hippel-Lindau disease tumor suppressor/Epidermal growth factor receptor (Homo sapiens, UniProt P00533+P40337, T790M/C797S/L858R). The data set is described as follows: PROTAC activity at VHL/EGFR L858R/T790M/C797S mutant in human H1975-TM cells assessed as induction of EGFR degradation incubated for 48 hrs by Western blot analysis. It counts as cell-based.
The test system of data set [5] is von Hippel-Lindau disease tumor suppressor/Epidermal growth factor receptor (Homo sapiens), P00533+P40337 [UNDEFINED MUTATION]. The data set is described as follows: PROTAC activity at VHL/EGFR Del19 mutant in human HCC827 cells assessed as downregulation of EGFR phosphorylation incubated for 72 hrs by Western blot analysis. It counts as cell-based.
Data set [6] has as its system NCI-H1975. The experiment in a line: Antitumor activity against human NCI-H1975 cells xenografted in BALB/c mouse assessed as tumor growth inhibition at 10 mg/kg,ip once daily for 22 days relative to control. It counts as functional. The settings on record: NCI-H1975, 528 h, time 22 day, read-out: TGI.
Data set [7] can be described thus: Metabolic stability in rat liver microsomes assessed as elimination rate constant at 1 uM incubated upto 60 mins in presence of NADPH by LC-MS/MS analysis. It counts as ADME, Microsome.
A short description of data set [8]: Antiproliferative activity against human H1975-TM cells harboring EGFR L858R/T790M/C797S mutant assessed as inhibition of cell growth incubated for 48 to 72 hrs by CCK-8 assay. It counts as functional, cell-based. In general terms: Tetrazolium dyes change colour on reduction, which living cells bring about.
Data set [9] in a line: AUC (0 to t) in SPF ICR mouse at 2 mg/kg,iv measured upto 24 hrs by LC-MS/MS analysis. It counts as ADME, organism-based. The note with it: in vivo.
The test system of data set [10] is von Hippel-Lindau disease tumor suppressor/Epidermal growth factor receptor (Homo sapiens), P00533+P40337 [UNDEFINED MUTATION]. The data set is described as follows: PROTAC activity at VHL/EGFR Del19 mutant in human HCC827 cells assessed as induction of EGFR degradation at 100 nM by Western blot analysis. It counts as cell-based. The note with it: TDE = time-dependent effect.

The nature of data set [11]: Metabolic stability in mouse liver microsomes assessed as half-life at 1 uM incubated upto 60 mins in presence of NADPH by LC-MS/MS analysis. It counts as ADME, Microsome.
Data set [12] is described as follows: Half life in SPF ICR mouse at 2 mg/kg,iv measured upto 24 hrs by LC-MS/MS analysis. It counts as ADME, organism-based. The note with it: in vivo.
Data set [13] is described as follows: Metabolic stability in dog liver microsomes assessed as half-life at 1 uM incubated upto 60 mins in presence of NADPH by LC-MS/MS analysis. It counts as ADME, Canis lupus familiaris, Microsome.
In data set [14] the test system is NCI-H1975. The experiment in a line: Antitumor activity against human NCI-H1975 cells xenografted in BALB/c mouse assessed as tumor growth inhibition at 20 mg/kg,ip once daily for 22 days relative to control. It counts as functional. The settings on record: NCI-H1975, 528 h, time 22 day, read-out: TGI.
Data set [15] deals with von Hippel-Lindau disease tumor suppressor/Epidermal growth factor receptor (Homo sapiens), P00533+P40337 [L858R,T790M]. The experiment in a line: PROTAC activity at VHL/EGFR L858R/T790M mutant in human NCI-H1975 cells assessed as downregulation of ERK phosphorylation incubated for 72 hrs by Western blot analysis. It counts as cell-based.
The nature of data set [16]: Toxicity in BALB/c mouse xenografted with human H1975-TM cells assessed as change in body weight at 5 to 20 mg/kg,ip once daily for 14 days. It counts as organism-based. The settings on record: in vivo, 336 h, dose 5-20 mg/kg, time 14 day.

Calls of active or inactive are those of the source. No cut-off for these calls is given here.

Broadly, the DC50 is the concentration giving 50% degradation. The term IC50 denotes the concentration that inhibits the measured activity by half. As a reminder, the AUC(0-t) is exposure summed from dosing to a finite time, without extrapolation to infinity. The term half-life denotes how long it takes for the measured level to halve. In the case of `CCN(CC)C/C=C/C(=O)Nc1cc2c(Nc3ccc(F)c(Cl)c3)ncnc2cc1OCc1cn(CCCCCCCC(=O)N[C@H](C(=O)N2C[C@H](O)C[C@H]2C(=O)N[C@H](C)c2ccc(-c3scnc3C)cc2)C(C)(C)C)nn1`, the values for the DC50 in data set [1] and in [4] were 17.9 nM and 630 nM, respectively. Besides, the result with H1975-TM was Active. Also, the result in data set [2] was inactive. In addition, the k el at 1 h, 1 µM in [3] was 0.0003 s⁻¹; in [7], 6.67e-05 s⁻¹. The Activity result was “Dose-Dependent Effect” in data set [5], “Tde” in data set [10], “Dose-Dependent Effect” in [15] and “Non-Toxic” in data set [16]. Moreover, in the data set with NCI-H1975 [6], the inhibition in vivo at 10 mg/kg was determined as 79%. The half-inhibitory concentration (IC50) in data set [8] worked out at 3240 nM. This compound gave an area under the curve AUC(0-t) at 24 h in data set [9] of 2350 ng·h/mL. In addition, the half-life at 1 µM in data set [11] came out at 1.95 h; in data set [13], 1.3 h. Besides, the half-life in [12] is 1.67 h. In the data set on NCI-H1975 [14], the inhibition in vivo at 20 mg/kg was 85%.
